Reference: patent publication US20230086303A1 (priority 2016, published 2023)
Converted amounts (≈) assume the structure as drawn. Starred links: 1 amine or outer side, 2 acyl side, 3 side chain; linkers in the order of their positions; H or OH if unused. Positions of bridges follow the written chain, without caps; N, C: chain ends. Non-standard residues stand in square brackets, D forms with d. Residues, ends and D or L forms follow the SMILES beside them. *: point of attachment. pTerphenylCO(4''-OnC5H11) = CCCCCOc1ccc(-c2ccc(-c3ccc(C(=O)*)cc3)cc2)cc1; Orn(4R-OH,5R-OH) = O=C([C@H](C[C@@H](O)[C@@H](O)N[*:3])N[*:1])[*:2]; hTyr(3S-OH,4S-OH) = N[C@H](C(=O)O)[C@H](O)[C@@H](O)c1ccc(O)cc1; Pro(3S-OH,4S-Me) = C[C@H]1CN[C@H](C(=O)O)[C@H]1O; Hyp = O=C(O)[C@@H]1C[C@@H](O)CN1

Assay: not given
Settings: cited from earlier work

Which water solubility does the source give for `C[C@]12CC3C[C@](C)(C1)C[C@@](N)(C3)C2` [free base of memantine, 3,5-dimethyladamantan-1-amine] here?
The water solubility was 900 µg/mL (≈ 5.02 mM).

Assay: not given
Settings: in vivo; cited from earlier work

Which half-life does the source give for `CCC1(c2ccccc2)C(=O)NC(=O)N(C)C1=O` (stereo not shown) [mephobarbital] here?
The half-life was “greater than 48 hours”.

For `CCCCCCCCc1ccc(CCC(N)(CO)CO)cc1` [fingolimod], which half-life is on record?
Its half-life is “greater than 48 hours”.

Which half-life does the source give for `CNCCC=C1c2ccccc2CCc2ccccc21` [nortriptyline] here?
The half-life was “greater than 48 hours”.

For `O=C1CN=C(c2ccccc2Cl)c2cc([N+](=O)[O-])ccc2N1` [clonazepam], which half-life is on record?
Its half-life is “greater than 48 hours”.

Which half-life does the source give for `C[C@@H]1[C@H](O)[C@@H](C)/C=C/C=C/C=C/C=C/C=C/C=C/C=C/[C@H](O[C@@H]2O[C@H](C)[C@@H](O)[C@H](N)[C@@H]2O)C[C@@H]2O[C@](O)(C[C@@H](O)C[C@@H](O)[C@H](O)CC[C@@H](O)C[C@@H](O)CC(=O)O[C@H]1C)C[C@H](O)[C@H]2C(=O)O` [amphotericin] here?
The half-life was “greater than 48 hours”.

For `Cc1cc2c(s1)Nc1ccccc1N=C2N1CCN(C)CC1` [olanzapine], which half-life is on record?
The half-life was “greater than 48 hours”.

Which half-life does the source give for `CO[C@H]1C[C@@H]2CC[C@@H](C)[C@@](O)(O2)C(=O)C(=O)N2CCCC[C@H]2C(=O)O[C@H]([C@H](C)C[C@@H]2CC[C@@H](O)[C@H](OC)C2)CC(=O)[C@H](C)/C=C(\C)[C@@H](O)[C@@H](OC)C(=O)[C@H](C)C[C@H](C)/C=C/C=C/C=C/1C` [sirolimus] here?
The half-life was “greater than 48 hours”.

With `CCC1(c2ccccc2)C(=O)NC(=O)NC1=O` [phenobarbital] as the compound, how does the half-life read?
The half-life was “greater than 48 hours”.

With `CCCCCOc1ccc(-c2ccc(-c3ccc(C(=O)N[C@H]4C[C@@H](O)[C@@H](O)NC(=O)[C@@H]5[C@@H](O)[C@@H](C)CN5C(=O)[C@H]([C@@H](C)O)NC(=O)[C@H]([C@H](O)[C@@H](O)c5ccc(O)cc5)NC(=O)[C@@H]5C[C@@H](O)CN5C(=O)[C@H]([C@@H](C)O)NC4=O)cc3)cc2)cc1` [anidulafungin] ({pTerphenylCO(4''-OnC5H11)}-[Orn(4R-OH,5R-OH)]T[Hyp][hTyr(3S-OH,4S-OH)]T[Pro(3S-OH,4S-Me)]; lactam 1-C) as the compound, how does the half-life read?
Its half-life is “greater than 48 hours”.

Which half-life does the source give for `NC(=O)N1c2ccccc2C=Cc2ccccc21` [carbamazepine] here?
Its half-life is “greater than 48 hours”.

Assay: Gastrointestinal related adverse events in clinical study
Settings: 10 mg/day donepezil administered transdermally versus orally
Protocol: The number of subjects with treatment related adverse events is assessed daily during the 36 day confinement period and for 7 visits over a 21 day wash-out period. Assessment of local skin irritation in the subjects of Arm 1 will also be assessed daily during the 36 day confinement period and for 7 visits over a 21 day wash-out period. Skin irritation is assessed using an 8 point categorical scale of no irritation; minimal erythema, barely perceptible; definite erythema readily visible; minimal edema or minimal popular response; erythema and papules; definite edema; erythema, edema and papules; vesicular eruption; strong reaction, spreading beyond application site.

For `COc1cc2c(cc1OC)C(=O)C(CC1CCN(Cc3ccccc3)CC1)C2` (stereo not shown) [donepezil], which “number of subjects experiencing diarrhea, transdermally versus orally” value is on record?
The value was “two-fold lower”.

And the “number of subjects experiencing nausea, transdermally versus orally” value?
The value was “four-fold lower”.
